Data from the NIST ThermoML archive (doi:10.1016/j.tca.2015.05.023).
± gives the expanded uncertainty stated by the source.

Experiments:
[1] = Molar enthalpy of transition or fusion; details: Crystal; DSC
[2] = Crystal; DTA

SMILES: O=[N+]([O-])[O-].[Na+] [sodium nitrate]
- Molar enthalpy of transition or fusion [1]: 3.84 ± 0.122 kcal/mol
- Triple point temperature [2]: 581.15 ± 1 K
